Results on 32 molecules are retold here after ChEMBL document CHEMBL3217672, “Optimization of a series of dipeptides with a P3 -neopentyl asparagine residue as non-covalent inhibitors of the chymotrypsin-like activity of human 20S proteasome” (Medchemcomm, 2012).

A short description of assay [1]: Cytotoxicity against human Calu6 cells after 72 hrs by luminescence assay. It counts as functional. The conditions noted are these: Calu-6, 72 h, read-out: LC50 (the source's name).
The target of assay [2] is T1, Proteasome Macropain subunit MB1 (Homo sapiens, UniProt P28074).
T1 sequence (P28074 whole entry): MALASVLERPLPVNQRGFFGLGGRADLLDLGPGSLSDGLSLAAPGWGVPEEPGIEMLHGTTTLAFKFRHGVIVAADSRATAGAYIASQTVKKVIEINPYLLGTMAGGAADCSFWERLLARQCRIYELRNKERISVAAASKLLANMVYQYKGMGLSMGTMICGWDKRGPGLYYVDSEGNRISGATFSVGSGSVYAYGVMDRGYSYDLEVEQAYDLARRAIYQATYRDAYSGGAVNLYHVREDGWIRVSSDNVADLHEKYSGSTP
The experiment in a line: Inhibition of 20S proteasome beta5 subunit in human erythrocytes using Ac-WLA-AMC as substrate by fluorescence assay. It counts as cell-based.

Assay [3] deals with T1, Proteasome Macropain subunit MB1. The assay can be described thus: Inhibition of 26S proteasome beta5 subunit in human Calu6 cells using Suc-LLVY-aminoluciferin as substrate after 1hr by luminescence assay. In kind it is cell-based, Calu-6.
The target in assay [4] is Cathepsin B (Homo sapiens) (UniProt P07858). The experiment in a line: Inhibition of human purified cathepsin B at 100 uM.
Assay [5] deals with T2, Coagulation factor XII (Homo sapiens) (UniProt P00748).
T2 sequence (whole entry): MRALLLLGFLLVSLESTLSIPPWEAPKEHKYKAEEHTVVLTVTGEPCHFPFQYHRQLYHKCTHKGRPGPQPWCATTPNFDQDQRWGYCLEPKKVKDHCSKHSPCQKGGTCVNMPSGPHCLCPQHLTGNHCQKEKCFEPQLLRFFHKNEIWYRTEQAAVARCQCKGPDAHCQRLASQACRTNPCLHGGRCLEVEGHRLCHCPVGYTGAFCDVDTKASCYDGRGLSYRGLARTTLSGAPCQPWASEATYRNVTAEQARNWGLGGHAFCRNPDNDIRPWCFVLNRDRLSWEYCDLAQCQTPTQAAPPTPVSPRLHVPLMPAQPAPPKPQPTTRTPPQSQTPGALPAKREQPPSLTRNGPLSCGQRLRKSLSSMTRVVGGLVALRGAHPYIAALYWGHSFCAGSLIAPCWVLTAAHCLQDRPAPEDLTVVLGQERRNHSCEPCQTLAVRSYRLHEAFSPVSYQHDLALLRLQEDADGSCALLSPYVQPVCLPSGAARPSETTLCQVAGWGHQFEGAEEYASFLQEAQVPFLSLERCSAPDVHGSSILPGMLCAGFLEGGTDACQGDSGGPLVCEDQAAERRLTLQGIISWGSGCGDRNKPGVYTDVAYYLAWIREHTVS
The experiment in a line: Inhibition of human purified coagulation factor 12a at 100 uM.

For assay [6], the species on record is Homo sapiens. The experiment in a line: Inhibition of human purified chymotrypsin at 100 uM.
Another assay concerns the target Trypsin (Homo sapiens) (UniProt P07477+P07478+P35030). The assay can be described thus: Inhibition of human purified trypsin at 100 uM. It counts as protein assay.
For assay [7], the species on record is Homo sapiens. The assay can be described thus: Inhibition of human purified elastase at 100 uM.
Assay [8] concerns the target Procathepsin L (Homo sapiens) (UniProt P07711). The experiment in a line: Inhibition of human purified cathepsin L at 100 uM.
Assay [9] has as its target Plasminogen (Homo sapiens) (UniProt P00747). The assay can be described thus: Inhibition of human purified plasmin at 100 uM.
Assay [10] has as its target Prothrombin (Homo sapiens) (UniProt P00734). The experiment in a line: Inhibition of human purified thrombin at 100 uM.
Assay [11] deals with Tissue-type plasminogen activator (Homo sapiens) (UniProt P00750). The assay can be described thus: Inhibition of human purified tissue-type plasminogen activator at 100 uM.
Tissue-type plasminogen activator (Homo sapiens), sequence (P00750 36-562 limits assumed): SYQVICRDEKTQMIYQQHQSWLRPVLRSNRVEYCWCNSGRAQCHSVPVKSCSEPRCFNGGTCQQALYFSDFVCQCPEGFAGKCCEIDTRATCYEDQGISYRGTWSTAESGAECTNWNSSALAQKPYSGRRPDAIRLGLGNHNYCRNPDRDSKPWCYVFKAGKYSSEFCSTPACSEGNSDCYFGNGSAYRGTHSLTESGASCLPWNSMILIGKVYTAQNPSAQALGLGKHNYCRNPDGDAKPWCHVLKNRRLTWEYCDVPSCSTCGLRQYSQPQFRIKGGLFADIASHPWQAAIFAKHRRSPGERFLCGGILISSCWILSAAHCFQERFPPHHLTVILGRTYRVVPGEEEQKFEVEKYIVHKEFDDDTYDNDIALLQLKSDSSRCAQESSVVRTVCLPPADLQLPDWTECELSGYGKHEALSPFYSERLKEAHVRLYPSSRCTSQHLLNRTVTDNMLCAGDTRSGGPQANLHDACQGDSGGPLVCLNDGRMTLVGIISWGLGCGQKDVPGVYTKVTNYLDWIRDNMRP
The target of assay [12] is T3, Calpain-1 catalytic subunit (Homo sapiens) (UniProt P07384).
T3 sequence (whole entry): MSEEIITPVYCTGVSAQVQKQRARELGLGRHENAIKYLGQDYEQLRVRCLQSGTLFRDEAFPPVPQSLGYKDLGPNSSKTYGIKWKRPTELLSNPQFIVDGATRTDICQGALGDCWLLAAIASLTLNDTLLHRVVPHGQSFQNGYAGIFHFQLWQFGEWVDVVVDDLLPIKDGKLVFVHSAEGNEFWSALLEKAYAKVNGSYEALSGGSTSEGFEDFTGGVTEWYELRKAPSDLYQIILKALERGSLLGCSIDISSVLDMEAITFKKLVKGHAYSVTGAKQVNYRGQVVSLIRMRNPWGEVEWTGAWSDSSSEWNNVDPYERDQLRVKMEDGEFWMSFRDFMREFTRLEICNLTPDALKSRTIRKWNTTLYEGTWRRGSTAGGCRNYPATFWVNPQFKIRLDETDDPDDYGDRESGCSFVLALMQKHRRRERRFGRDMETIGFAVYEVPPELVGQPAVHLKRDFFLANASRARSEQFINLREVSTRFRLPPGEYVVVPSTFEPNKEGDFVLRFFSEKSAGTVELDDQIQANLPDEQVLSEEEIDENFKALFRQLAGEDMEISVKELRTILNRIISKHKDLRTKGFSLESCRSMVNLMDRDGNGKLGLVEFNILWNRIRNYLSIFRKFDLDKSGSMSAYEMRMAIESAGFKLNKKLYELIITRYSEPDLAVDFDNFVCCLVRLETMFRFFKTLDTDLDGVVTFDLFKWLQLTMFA
The experiment in a line: Inhibition of human purified calpain 1 at 100 uM.

Activity calls are given as the source filed them. The rule behind the calls is not given here.

Plasminogen (Homo sapiens), sequence (P00747 97-580 limits assumed): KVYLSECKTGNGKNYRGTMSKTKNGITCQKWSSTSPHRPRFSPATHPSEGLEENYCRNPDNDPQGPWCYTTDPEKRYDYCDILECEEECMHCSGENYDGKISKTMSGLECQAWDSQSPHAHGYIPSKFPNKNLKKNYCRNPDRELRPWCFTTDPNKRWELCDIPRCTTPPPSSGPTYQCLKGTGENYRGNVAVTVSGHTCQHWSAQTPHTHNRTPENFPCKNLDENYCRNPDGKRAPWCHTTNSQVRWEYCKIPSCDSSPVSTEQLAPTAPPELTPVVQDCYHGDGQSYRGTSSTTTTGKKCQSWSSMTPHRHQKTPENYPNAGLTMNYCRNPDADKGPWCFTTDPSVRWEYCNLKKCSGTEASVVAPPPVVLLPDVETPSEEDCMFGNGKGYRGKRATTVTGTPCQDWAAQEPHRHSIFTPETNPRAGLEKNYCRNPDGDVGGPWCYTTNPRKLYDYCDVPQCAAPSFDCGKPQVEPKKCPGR
Plasminogen (Homo sapiens), sequence (P00747 581-810 limits assumed): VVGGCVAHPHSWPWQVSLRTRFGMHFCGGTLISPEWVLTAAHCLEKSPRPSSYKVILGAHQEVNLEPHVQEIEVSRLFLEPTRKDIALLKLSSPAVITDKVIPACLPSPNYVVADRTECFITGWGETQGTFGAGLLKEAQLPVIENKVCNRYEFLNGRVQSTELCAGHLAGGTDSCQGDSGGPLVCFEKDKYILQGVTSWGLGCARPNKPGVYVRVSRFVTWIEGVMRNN
Procathepsin L (Homo sapiens), sequence (P07711 114-333 limits assumed): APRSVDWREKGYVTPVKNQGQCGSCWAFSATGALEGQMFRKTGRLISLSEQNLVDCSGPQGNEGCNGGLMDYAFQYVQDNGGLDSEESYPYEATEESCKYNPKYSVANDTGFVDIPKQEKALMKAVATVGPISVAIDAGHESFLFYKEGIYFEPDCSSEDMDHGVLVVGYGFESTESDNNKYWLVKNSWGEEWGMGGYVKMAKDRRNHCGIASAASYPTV

Regarding `CC(C)(C)CNC(=O)C[C@H](NC(=O)c1ccc(OCc2ccccc2)cc1)C(=O)N[C@@H](CCc1ccccc1)C(=O)NCc1ccccc1`, in assay [1], the CC50 was 10 nM.

For the molecule `CC(C)(C)CNC(=O)C[C@H](NC(=O)Cc1ccc(F)cc1)C(=O)N[C@@H](CCc1ccccc1)C(=O)NCc1ccccc1`, the CC50 in assay [1] was 120 nM.

With `CC(C)(C)CNC(=O)C[C@H](NC(=O)C(=O)c1c[nH]c2ccccc12)C(=O)N[C@@H](CCc1ccccc1)C(=O)NCc1ccccc1`, in assay [1], the CC50 was 2.6 nM.

Turning to `Cc1cc(C(=O)N[C@@H](CC(=O)NCC(C)(C)C)C(=O)N[C@@H](Cc2cccnc2)C(=O)NCc2ccccc2Cl)no1`, the CC50 in assay [1] was found to be 170 nM.

Turning to `CC(C)(C)CNC(=O)C[C@H](NC(=O)CN1CCCCC1)C(=O)N[C@@H](CCc1ccccc1)C(=O)NCc1ccccc1`, the CC50 in [1] came out at 180 nM.

A word on the IC50: it is the concentration needed to halve the response being measured. The low end stands for higher potency, the high end for lower potency. Consider `Cc1ccc(CNC(=O)[C@H](CCc2ccccc2)NC(=O)[C@H](Cc2nc(C(C)(C)C)no2)NC(=O)c2cc(C)on2)cc1`, for which the results for the half-inhibitory concentration (IC50) in assay [2] and in assay [3] were 93 nM and 1700 nM, respectively. The CC50 in assay [1] was 1500 nM.

Take `CC(C)C[C@H](NC(=O)[C@H](Cc1ccccc1)NC(=O)c1cnccn1)B(O)O` [BORTEZOMIB]: the CC50 in assay [1] was determined as 5.2 nM.

`Cc1cc(C(=O)N[C@@H](CC(=O)NCC(C)(C)C)C(=O)N[C@@H](Cc2ccc(Cl)cc2)C(=O)NCc2ccccc2Cl)no1` displayed an IC50 in [2] of 16 nM. The CC50 in [1] came to 1100 nM.

`CC(C)(C)CNC(=O)C[C@H](NC(=O)CCc1ccccc1)C(=O)N[C@@H](Cc1cccnc1)C(=O)NCc1ccccc1Cl`: the CC50 in assay [1] amounted to 61 nM.

Consider `CC(C)(C)CNC(=O)C[C@H](NC(=O)c1ccc(C(C)(C)C)cc1)C(=O)N[C@@H](CCc1ccccc1)C(=O)NCc1ccccc1`, for which, in [1], the CC50 is 31 nM.

Regarding `Cc1ccc(CNC(=O)[C@H](CCc2ccccc2)NC(=O)[C@H](CNC(=O)CC(C)(C)C)NC(=O)CCc2ccccc2)cc1`, the IC50 in [2] is > 1000 nM.

As for `CC(C)(C)CNC(=O)C[C@H](NC(=O)CCc1ccccc1)C(=O)N[C@@H](CCc1ccccc1)C(=O)NCc1ccccc1`, the CC50 in [1] came out at 89 nM.

With `CC(C)(C)CNC(=O)C[C@H](NC(=O)CCc1ccccc1)C(=O)N[C@@H](CCc1ccccc1)C(=O)NCC1CC1`, the IC50 stood at 12 nM in assay [2] and 360 nM in assay [3]. Also, in [1], the CC50 came to 150 nM.

Turning to `CC(C)(C)CNC(=O)C[C@H](NC(=O)C(=O)c1c[nH]c2ccccc12)C(=O)N[C@@H](CCc1ccccc1)C(=O)NCc1ccccc1Cl`, the inhibition entry (in assay [4]; in assay [5]; in the assay filed under Homo sapiens [6]; at Trypsin (Homo sapiens); in the assay listed under Homo sapiens [7]; in assay [8]) was “inactive” throughout. Moreover, the inhibition result in assay [9], in assay [10], in [11] and in assay [12] was “inactive” in each case. Besides, the CC50 in assay [1] came out at 2.4 nM.

Take `CC(C)(C)CNC(=O)C[C@H](NC(=O)c1ccc(OCc2ccccc2)cc1)C(=O)N[C@@H](CCc1ccccc1)C(=O)NCc1ccccc1Cl`: the CC50 in assay [1] was determined as 4.7 nM.

With `CC(=O)N[C@@H](CC(=O)NCC(C)(C)C)C(=O)N[C@@H](CCc1ccccc1)C(=O)NCc1ccccc1`, the CC50 in [1] is 890 nM.

On to `Cc1ccc(CNC(=O)[C@H](CCc2ccccc2)NC(=O)[C@H](CNC(=O)CC(C)(C)C)NC(=O)C(=O)c2c[nH]c3ccccc23)cc1`, for which the IC50 in [2] turned out to be 910 nM.

Consider `Cc1ccc(CNC(=O)[C@H](CCc2ccccc2)NC(=O)[C@H](CC(=O)NCC(C)C)NC(=O)c2cc(C)on2)cc1`, for which, in assay [2], it took 7.3 nM to reach half-maximal inhibition (IC50). Also, the CC50 in [1] is 250 nM.

As for `Cc1cc(C(=O)N[C@@H](CC(=O)NCC(C)(C)C)C(=O)N[C@@H](Cc2ccncc2)C(=O)NCc2ccccc2Cl)no1`, the CC50 in assay [1] stood at 210 nM.

For the molecule `CC(C)C[C@H](NC(=O)CNC(=O)c1cc(Cl)ccc1Cl)B(O)O` [IXAZOMIB], the CC50 in assay [1] came out at 14 nM.

`CCCNC(=O)C[C@H](NC(=O)c1cc(C)on1)C(=O)N[C@@H](CCc1ccccc1)C(=O)NCc1ccc(C)cc1` registered an IC50 in [2] of 160 nM.

Take `Cc1cc(C(=O)N[C@@H](CC(=O)NCC(C)(C)C)C(=O)N[C@@H](CCc2ccccc2)C(=O)NCc2ccccc2Cl)no1`: the inhibition result (in [4]; in [5]; in the assay listed under Homo sapiens [6]; on Trypsin (Homo sapiens); in the assay filed under Homo sapiens [7]; in assay [8]) was “inactive” each time. The inhibition entry in [9], in assay [10], in assay [11] and in assay [12] was “inactive” each time. Besides, the CC50 in assay [1] turned out to be 41 nM.

As to `CC(C)(C)CNC(=O)C[C@H](NC(=O)CCc1ccccc1)C(=O)N[C@@H](CCc1ccccc1)C(=O)NCc1ccccc1Cl`, the CC50 in [1] came to 20 nM.

For `C[C@H](NC(=O)[C@H](CC(=O)NCC(C)(C)C)NC(=O)CCc1ccccc1)C(=O)NCc1ccccc1Cl`, the CC50 in assay [1] is 39 nM.

Regarding `CC(C)(C)CNC(=O)C[C@H](NC(=O)Cc1ccc(F)cc1)C(=O)N[C@@H](CCc1ccccc1)C(=O)NCc1ccccc1Cl`, in [1], the CC50 was 94 nM.

`Cc1ccc(CNC(=O)[C@H](CCc2ccccc2)NC(=O)[C@H](CNC(=O)CC(C)(C)C)NC(=O)c2cc(C)on2)cc1`: the IC50 in assay [2] was > 1000 nM.

As to `Cc1ccc(CNC(=O)[C@H](CCc2ccccc2)NC(=O)[C@H](Cc2nc(C(C)(C)C)no2)NC(=O)C(=O)c2c[nH]c3ccccc23)cc1`, the IC50 in assay [2] is 11.6 nM; in assay [3] it was 30 nM. In addition, the CC50 in [1] is 36 nM.

For the molecule `CC(C)(C)CNC(=O)C[C@H](NC(=O)C(=O)c1c[nH]c2ccccc12)C(=O)N[C@@H](Cc1ccncc1)C(=O)NCc1ccccc1Cl`, the CC50 in [1] was determined as 6 nM.

Take `Cc1cc(C(=O)N[C@@H](CC(=O)NCC(C)(C)C)C(=O)N[C@@H](C)C(=O)NCc2ccccc2Cl)no1`: in assay [1], the CC50 is 200 nM.

For `Cc1cc(C(=O)N[C@@H](CC(=O)NCC(C)(C)C)C(=O)N[C@@H](CCc2ccccc2)C(=O)NCc2ccccc2)no1`, in assay [1], the CC50 was 27 nM.

Turning to `CC(C)(C)CNC(=O)C[C@H](NC(=O)C(C)(C)C)C(=O)N[C@@H](CCc1ccccc1)C(=O)NCc1ccccc1`, the CC50 in assay [1] is 210 nM.

`Cc1ccc(CNC(=O)[C@H](CCc2ccccc2)NC(=O)[C@H](CCc2ccccc2)NC(=O)[C@H](CCc2ccccc2)NC(=O)c2cnc(C)cn2)cc1`: the IC50 turned out to be 16 nM in [2] and 53 nM in [3]. The CC50 in [1] amounted to 130 nM.
